Measurements from patent US10981894B2, “Melanocortin subtype-2 receptor (MC2R) antagonists and uses thereof” (Crinetics Pharmaceuticals, Inc., priority 2018, dated 2021).

The molecules below were run against hMC2 receptor (Homo sapiens, UniProt Q01718) (assay: hMC2 membrane binding assay ([125I]ACTH (1-39) Tyr23, SPA)). Details: crude hMC2R membranes from CRE-bla-CHO-K1 cells expressing hMC2 receptor and hMRAP; [125I]ACTH (1-39) Tyr23 0.2 nM; 1.5 hours at room temperature; read-out: MC2R binding potency.
Sequence of hMC2 receptor (Q01718 whole entry): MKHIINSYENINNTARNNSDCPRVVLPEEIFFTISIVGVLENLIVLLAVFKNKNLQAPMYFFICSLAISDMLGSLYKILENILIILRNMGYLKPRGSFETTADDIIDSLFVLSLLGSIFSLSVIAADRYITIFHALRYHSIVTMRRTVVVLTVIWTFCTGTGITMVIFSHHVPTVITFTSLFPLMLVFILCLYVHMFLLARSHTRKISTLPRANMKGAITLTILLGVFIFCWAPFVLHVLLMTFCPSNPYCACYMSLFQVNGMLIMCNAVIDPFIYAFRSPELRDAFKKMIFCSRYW
Sequence of hMC2 receptor (Q8TCY5 whole entry partner): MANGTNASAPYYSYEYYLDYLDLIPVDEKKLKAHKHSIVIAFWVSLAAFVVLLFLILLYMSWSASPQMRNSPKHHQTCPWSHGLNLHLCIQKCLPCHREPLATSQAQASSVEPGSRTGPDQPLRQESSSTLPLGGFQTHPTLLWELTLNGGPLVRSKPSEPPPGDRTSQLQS
Parameters: scale not given here
Method in brief: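 Ki comes from non-linear regression of SPA scintillation counts. Displacement of 0.2 nM [125I]ACTH(1-39) Tyr23 by compound dose series (usually 0–10,000 nM final) ran 1.5 h at room temperature. Membranes came from CHO-K1 CRE-bla cells stably expressing hMC2R plus hMRAP, bead-coupled in pH 7.4 buffer with 0.2% BSA.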
`CCOc1ccccc1-c1ccc(N2CCN(C(=O)N3CCC[C@H]3C(F)(F)F)C[C@H]2CC)c(C(=O)N[C@@H]2CCN(C)C2)n1` [Compound 1-374, 6-(2-ethoxyphenyl)-3-[(2R)-2-ethyl-4-[(2S)-2-(trifluoromethyl)pyrrolidine-1-carbonyl]piperazin-1-yl]-N-[(3R)-1-methylpyrrolidin-3-yl]pyridine-2-carboxamide] was tested, and the Ki was < 10 nM. `CCOc1ncccc1-c1ccc(N2CCN(C(=O)c3ccc(C(F)(F)F)s3)C[C@H]2CC)c(C(=O)N[C@@H]2CCNC2)n1` [Compound 1-368, 2′-ethoxy-5-[(2R)-2-ethyl-4-[5-(trifluoromethyl)thiophene-2-carbonyl]piperazin-1-yl]-N-[(3R)-pyrrolidin-3-yl]-[2,3′-bipyridine]-6-carboxamide] was tested, and the Ki was < 10 nM. `CCOc1ncccc1-c1ccc(N2CCN(C(=O)c3ccc(OC)nc3C(F)(F)F)C[C@H]2CC)c(C(=O)NCCNC)c1F` [Compound 1-164, 3-(2-ethoxypyridin-3-yl)-6-[(2R)-2-ethyl-4-[6-methoxy-2-(trifluoromethyl)pyridine-3-carbonyl]piperazin-1-yl]-2-fluoro-N-[2-(methylamino)ethyl]benzamide] was tested, and the Ki was < 10 nM. `CCOc1ncccc1-c1ccc(N2CCN(C(=O)N3CCc4cccc(C#N)c43)C[C@H]2CC)c(C(=O)N[C@@H]2CCN(C)C2)n1` [Compound 1-383, 5-[(2R)-4-(7-cyano-2,3-dihydro-1H-indole-1-carbonyl)-2-ethylpiperazin-1-yl]-2′-ethoxy-N-[(3R)-1-methylpyrrolidin-3-yl]-[2,3′-bipyridine]-6-carboxamide] was tested, and the Ki was < 10 nM. `CCOc1ncccc1-c1ccc(N2CCN(C(=O)c3ccc(Cl)cc3C(F)(F)F)C[C@H]2CC)c(C(=O)N[C@@H]2CCNC2)n1` [Compound 1-151, 5-[(2R)-4-[4-chloro-2-(trifluoromethyl)benzoyl]-2-ethylpiperazin-1-yl]-2′-ethoxy-N-[(3R)-pyrrolidin-3-yl]-[2,3′-bipyridine]-6-carboxamide] was tested, and the Ki was < 10 nM. In the case of `CCOc1ccc(C(=O)N2CCN(c3ccc(-c4cccnc4OCC)nc3C(=O)NCC3CN(C)C3)[C@H](CC)C2)c(C(F)(F)F)n1` [Compound 1-249, 2′-ethoxy-5-[(2R)-4-[6-ethoxy-2-(trifluoromethyl)pyridine-3-carbonyl]-2-ethylpiperazin-1-yl]-N-[(1-methylazetidin-3-yl)methyl]-[2,3′-bipyridine]-6-carboxamide], the Ki is reported as < 10 nM. With `CCOc1ncccc1-c1ccc(N2CCN(C(=O)c3ccc(Cl)cc3C(F)(F)F)C[C@H]2CC)c(C(=O)NC[C@H]2CCCN2)c1` [Compound 1-108, 2-[(2R)-4-[4-chloro-2-(trifluoromethyl)benzoyl]-2-ethylpiperazin-1-yl]-5-(2-ethoxypyridin-3-yl)-N-{[(2R)-pyrrolidin-2-yl]methyl}benzamide] the Ki was < 10 nM. In the case of `CCOc1ncccc1-c1ccc(N2CCN(C(=O)N3CCc4cc(F)cc(Cl)c43)C[C@H]2CC)c(C(=O)N[C@H]2CCN(C)C2)n1` [Compound 1-419, 5-[(2R)-4-(7-chloro-5-fluoro-2,3-dihydro-1H-indole-1-carbonyl)-2-ethylpiperazin-1-yl]-2′-ethoxy-N-[(3S)-1-methylpyrrolidin-3-yl]-[2,3′-bipyridine]-6-carboxamide], the Ki is reported as < 10 nM. In the case of `CCOc1ncccc1-c1ccc(N2CCN(C(=O)OC(C(C)(C)C)C(F)(F)F)C[C@H]2CC)c(C(=O)N[C@@H]2CCNC2)n1` (stereo partly drawn) [Compound 1-312, 1,1,1-trifluoro-3,3-dimethylbutan-2-yl (3R)-4-(2′-ethoxy-6-{[(3R)-pyrrolidin-3-yl]carbamoyl}-[2,3′-bipyridin]-5-yl)-3-ethylpiperazine-1-carboxylate], the Ki is reported as < 10 nM. `CCOc1ncccc1-c1ccc(N2CCN(C(=O)c3ccc(C)cc3Cl)C[C@H]2CC)c(C(=O)N[C@@H]2CCNC2)c1F` [Compound 1-110, 6-[(2R)-4-(2-chloro-4-methylbenzoyl)-2-ethylpiperazin-1-yl]-3-(2-ethoxypyridin-3-yl)-2-fluoro-N-[(3R)-pyrrolidin-3-yl]benzamide] was tested, and the Ki was < 10 nM. In the case of `CCOc1ncccc1-c1ccc(N2CCN(C(=O)c3ccc(Cl)cc3C(F)(F)F)C[C@H]2CC)c(C(=O)NC[C@H]2COCCN2)c1` [Compound 1-138, 2-[(2R)-4-[4-chloro-2-(trifluoromethyl)benzoyl]-2-ethylpiperazin-1-yl]-5-(2-ethoxypyridin-3-yl)-N-{[(3S)-morpholin-3-yl]methyl}benzamide], the Ki is reported as < 10 nM. `CCOc1ncccc1-c1ccc(N2CCN(C(=O)C34CCC(CC3(F)F)C4(C)C)C[C@H]2CC)c(C(=O)N[C@@H]2CCNC2)n1` (stereo partly drawn) [Compound 1-354, 5-[(2R)-4-[2,2-difluoro-7,7-dimethylbicyclo[2.2.1]heptane-1-carbonyl]-2-ethylpiperazin-1-yl]-2′-ethoxy-N-[(3R)-pyrrolidin-3-yl]-[2,3′-bipyridine]-6-carboxamide] was tested, and the Ki was < 10 nM. For `CCOc1ncccc1-c1ccc(N2CCN(C(=O)C3(c4ccc(F)cc4F)CCC3)C[C@H]2CC)c(C(=O)N[C@@H]2CCN(C)C2)n1` [Compound 1-371, 5-[(2R)-4-[1-(2,4-difluorophenyl)cyclobutanecarbonyl]-2-ethylpiperazin-1-yl]-2′-ethoxy-N-[(3R)-1-methylpyrrolidin-3-yl]-[2,3′-bipyridine]-6-carboxamide], the Ki was < 10 nM. In the case of `CCOc1ccccc1-c1ccc(N2CCN(C(=O)c3ccc(F)cc3C(F)F)C[C@H]2CC)c(C(=O)N[C@@H]2CCNC2)n1` [Compound 1-292, 3-[(2R)-4-[2-(difluoromethyl)-4-fluorobenzoyl]-2-ethylpiperazin-1-yl]-6-(2-ethoxyphenyl)-N-[(3R)-pyrrolidin-3-yl]pyridine-2-carboxamide], the Ki is reported as < 10 nM. For `CCOc1ccccc1-c1ccc(N2CCN(C(=O)C3(C(F)(F)F)CCC3)C[C@H]2CC)c(C(=O)N[C@@H]2CN3CCC2CC3)n1` [Compound 1-410, N-[(3S)-1-azabicyclo[2.2.2]octan-3-yl]-6-(2-ethoxyphenyl)-3-[(2R)-2-ethyl-4-[1-(trifluoromethyl)cyclobutanecarbonyl]piperazin-1-yl]pyridine-2-carboxamide], the Ki was < 10 nM. With `CCOc1ncccc1-c1ccc(N2CCN(C(=O)c3ccc(Cl)cc3C(F)(F)F)C[C@H]2CC)c(C(=O)NCC2=NCCN2C)n1` [Compound 1-227, 5-[(2R)-4-[4-chloro-2-(trifluoromethyl)benzoyl]-2-ethylpiperazin-1-yl]-2′-ethoxy-N-[(1-methyl-4,5-dihydro-1H-imidazol-2-yl)methyl]-[2,3′-bipyridine]-6-carboxamide] the Ki was < 10 nM. For `CCOc1ncccc1-c1ccc(N2CCN(C(=O)N3CCc4cccc(C(F)(F)F)c43)C[C@H]2CC)c(C(=O)N[C@@H]2CCNC2)n1` [Compound 1-361, 2′-ethoxy-5-[(2R)-2-ethyl-4-[7-(trifluoromethyl)-2,3-dihydro-1H-indole-1-carbonyl]piperazin-1-yl]-N-[(3R)-pyrrolidin-3-yl]-[2,3′-bipyridine]-6-carboxamide], the Ki was < 10 nM. For `CCOc1ncccc1-c1ccc(N2CCN(C(=O)c3ccc(F)cc3C(F)(F)F)C[C@H]2CC)c(CN)n1` [Compound 2-20, 1-{2′-ethoxy-5-[(2R)-2-ethyl-4-[4-fluoro-2-(trifluoromethyl)benzoyl]piperazin-1-yl]-[2,3′-bipyridin]-6-yl}methanamine], the Ki was < 10 nM. A Ki of 10 to 100 nM was found for `CC[C@@H]1CN(C(=O)c2ccc(C(F)(F)F)cc2Cl)CCN1c1ccc(-c2ccccc2F)cc1C(=O)NCCN` [Compound 1-4, N-(2-aminoethyl)-4-[(2R)-4-[2-chloro-4-(trifluoromethyl)benzoyl]-2-ethylpiperazin-1-yl]-2′-fluoro-[1,1′-biphenyl]-3-carboxamide] in this work. In the case of `CCOc1ncccc1-c1ccc(N2CCN(C(=O)N3CCC[C@H]3C(F)(F)F)C[C@H]2CC)c(C(=O)N[C@H]2CCN(C)C2)n1` [Compound 1-373, 2′-ethoxy-5-[(2R)-2-ethyl-4-[(2S)-2-(trifluoromethyl)pyrrolidine-1-carbonyl]piperazin-1-yl]-N-[(3S)-1-methylpyrrolidin-3-yl]-[2,3′-bipyridine]-6-carboxamide], the Ki is reported as < 10 nM. `CCOc1ccccc1-c1ccc(N2CCN(C(=O)OC(C(C)(C)C)C(F)(F)F)C[C@H]2CC)c(C(=O)N[C@@H]2CCNC2)n1` (stereo partly drawn) [Compound 1-348, 1,1,1-trifluoro-3,3-dimethylbutan-2-yl (3R)-4-[6-(2-ethoxyphenyl)-2-{[(3R)-pyrrolidin-3-yl]carbamoyl}pyridin-3-yl]-3-ethylpiperazine-1-carboxylate] was tested, and the Ki was < 10 nM. With `CCOc1ncccc1-c1ccc(N2CCN(C(=O)C3(C(F)(F)F)CCCC3)C[C@H]2CC)c(C(=O)NC2CN(C)C2)n1` [Compound 1-241, 2′-ethoxy-5-[(2R)-2-ethyl-4-[1-(trifluoromethyl)cyclopentanecarbonyl]piperazin-1-yl]-N-(1-methylazetidin-3-yl)-[2,3′-bipyridine]-6-carboxamide] the Ki was < 10 nM. With `CCOc1ncccc1-c1ccc(N2CCN(C(=O)C3(C(F)(F)F)CC4CCC3C4)C[C@H]2CC)c(C(=O)NCC2CN(C)C2)n1` (stereo partly drawn) [Compound 1-339, 2′-ethoxy-5-[(2R)-2-ethyl-4-[2-(trifluoromethyl)bicyclo[2.2.1]heptane-2-carbonyl]piperazin-1-yl]-N-[(1-methylazetidin-3-yl)methyl]-[2,3′-bipyridine]-6-carboxamide] the Ki was < 10 nM. With `CCOc1ccccc1-c1ccc(N2CCN(C(=O)c3c(F)cc(C)cc3-c3ccc(CN)cc3)C[C@H]2CC)c(C(=O)NCCN)c1` [Compound 1-27, N-(2-aminoethyl)-4-[(2R)-4-[4′-(aminomethyl)-3-fluoro-5-methyl-[1,1′-biphenyl]-2-carbonyl]-2-ethylpiperazin-1-yl]-2′-ethoxy-[1,1′-biphenyl]-3-carboxamide] the Ki was < 10 nM. With `CCOc1ccc(C(=O)N2CCN(c3ccc(-c4cccnc4OCC)nc3C(=O)N[C@@H]3CCN(C)C3)[C@H](CC)C2)c(C(F)(F)F)n1` [Compound 1-243, 2′-ethoxy-5-[(2R)-4-[6-ethoxy-2-(trifluoromethyl)pyridine-3-carbonyl]-2-ethylpiperazin-1-yl]-N-[(3R)-1-methylpyrrolidin-3-yl]-[2,3′-bipyridine]-6-carboxamide] the Ki was < 10 nM.
